Test results as given in ChEMBL document CHEMBL1201862, “PubChem BioAssay data set” (2004).
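Test compounds were applied to cells in 96-well plates for 48 hours at 5 doses. GI50 marks 50% less growth.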 Active and inactive are the calls of the source. Cut-off read from the data, not from the text of the source: active = GI50 up to about 1.1 µM and inactive = higher.

How the values were obtained:
Test in all cases: growth of human tumour cells (NCI), 48 h
BT-549 = system: BT-549
OVCAR-3 = system: OVCAR-3
SF-295 = system: SF-295
SW-620 = system: SW-620
CCRF-CEM = system: CCRF-CEM
SK-MEL-28 = system: SK-MEL-28
SK-MEL-2 = system: SK-MEL-2
NCI-H460 = system: NCI-H460
NCI-H226 = system: NCI-H226
U-251 = system: U-251
HL-60 = system: HL-60
UO-31 = system: UO-31
HOP-92 = system: HOP-92
786-0 = system: 786-0
MOLT-4 = system: MOLT-4
K562 = system: K562
RXF 393 = system: RXF 393
SF-539 = system: SF-539
UACC-257 = system: UACC-257

Measured: GI50

O=C(O)CNC(=O)c1ccc([As](=O)(O)O)cc1
inactive: BT-549 > 100 µM | OVCAR-3 > 100 µM | SF-295 > 100 µM | SW-620 > 100 µM | CCRF-CEM > 100 µM | SK-MEL-28 > 100 µM | SK-MEL-2 > 100 µM | NCI-H460 > 100 µM | NCI-H226 > 100 µM | U-251 > 100 µM | HL-60 > 100 µM | UO-31 > 100 µM | HOP-92 > 100 µM | 786-0 > 100 µM | MOLT-4 > 100 µM | K562 > 100 µM | RXF 393 > 100 µM

COc1ccc(/C=C/c2nccc3ccccc23)cc1OC
inactive: BT-549 > 10 µM | OVCAR-3 9.2 µM | SF-295 > 10 µM | SW-620 > 10 µM | CCRF-CEM 6.52 µM | SK-MEL-28 > 10 µM | SK-MEL-2 > 10 µM | NCI-H460 > 10 µM | SF-539 > 10 µM | NCI-H226 > 10 µM | U-251 > 10 µM | HL-60 > 10 µM | HOP-92 6.17 µM | 786-0 > 10 µM | UACC-257 > 10 µM | MOLT-4 4.52 µM | K562 5.5 µM | RXF 393 > 10 µM

O=P1(c2ccccc2)C(c2ccccc2)CCC1c1ccccc1 (stereo unspecified)
inactive: BT-549 29.7 µM | OVCAR-3 53 µM | SF-295 32.1 µM | SW-620 89.9 µM | CCRF-CEM 21.4 µM | SK-MEL-28 > 100 µM | SF-539 > 100 µM | NCI-H226 91.8 µM | HL-60 10.2 µM | UO-31 66.1 µM | HOP-92 45 µM | 786-0 > 100 µM | UACC-257 71.1 µM | MOLT-4 32.2 µM | K562 10.8 µM | RXF 393 96.8 µM

O=C(O)c1cc(O)c2c(c1)C([C@@H]1c3cccc(O)c3C(=O)c3c(O)cc(C(=O)O)cc31)c1cccc(O)c1C2=O (stereo partly specified)
inactive: BT-549 51.1 µM | OVCAR-3 66.5 µM | SF-295 34.7 µM | SW-620 35.4 µM | CCRF-CEM 30.5 µM | SK-MEL-28 33.2 µM | NCI-H460 > 100 µM | SF-539 19.5 µM | NCI-H226 33.7 µM | U-251 25.4 µM | HL-60 29.9 µM | UO-31 > 100 µM | HOP-92 23.2 µM | 786-0 51.5 µM | UACC-257 35.5 µM | MOLT-4 20.7 µM | K562 23.8 µM | RXF 393 28.2 µM

CCCCN(CC)C(=O)C1=C(C)NC(C)=C(C(=O)N(CC)CCCC)C1
inactive: BT-549 > 100 µM | OVCAR-3 > 100 µM | SF-295 > 100 µM | SW-620 > 100 µM | SK-MEL-28 > 100 µM | SK-MEL-2 > 100 µM | NCI-H460 > 100 µM | SF-539 > 100 µM | NCI-H226 88.9 µM | U-251 > 100 µM | HL-60 89.1 µM | UO-31 > 100 µM | HOP-92 > 100 µM | 786-0 > 100 µM | UACC-257 > 100 µM | MOLT-4 > 100 µM | RXF 393 > 100 µM

O=C(N/N=C1\C(=O)Nc2c(Cl)cc(Cl)cc21)C(=O)Nc1cccc(C(F)(F)F)c1
inactive: BT-549 > 100 µM | OVCAR-3 > 100 µM | SF-295 > 100 µM | SW-620 > 100 µM | CCRF-CEM > 100 µM | SK-MEL-28 > 100 µM | SK-MEL-2 > 100 µM | NCI-H460 > 100 µM | SF-539 > 100 µM | NCI-H226 > 100 µM | U-251 97.5 µM | HL-60 62.8 µM | UO-31 > 100 µM | HOP-92 > 100 µM | 786-0 > 100 µM | UACC-257 > 100 µM | MOLT-4 85.1 µM | RXF 393 > 100 µM

CCc1n[nH]c(=O)n1-c1ccncc1
inactive: BT-549 > 100 µM | OVCAR-3 > 100 µM | SF-295 > 100 µM | SW-620 > 100 µM | CCRF-CEM > 100 µM | SK-MEL-28 > 100 µM | NCI-H460 > 100 µM | SF-539 > 100 µM | NCI-H226 > 100 µM | U-251 > 100 µM | HL-60 > 100 µM | UO-31 > 100 µM | HOP-92 > 100 µM | 786-0 > 100 µM | UACC-257 > 100 µM | MOLT-4 > 100 µM | K562 > 100 µM | RXF 393 > 100 µM

Cc1ccc(O)c(C2=NNC(c3cccc(Br)c3)C2)c1 (stereo unspecified)
inactive: BT-549 > 100 µM | OVCAR-3 62.2 µM | SF-295 61 µM | SW-620 67.1 µM | CCRF-CEM 29.3 µM | SK-MEL-2 > 100 µM | NCI-H460 33.9 µM | SF-539 74.1 µM | NCI-H226 71.6 µM | U-251 43.7 µM | HL-60 53.3 µM | UO-31 51.5 µM | HOP-92 15.4 µM | 786-0 > 100 µM | UACC-257 48.9 µM | MOLT-4 32.8 µM | K562 38 µM | RXF 393 56.4 µM

Cc1ccc(N(C)S(=O)(=O)c2ccc([N+](=O)[O-])cc2)cc1
inactive: BT-549 > 100 µM | OVCAR-3 > 100 µM | SF-295 92.3 µM | SW-620 > 100 µM | CCRF-CEM > 100 µM | SK-MEL-28 > 100 µM | SK-MEL-2 > 100 µM | NCI-H460 74 µM | SF-539 > 100 µM | NCI-H226 48.9 µM | U-251 > 100 µM | HL-60 54.6 µM | UO-31 44.3 µM | 786-0 > 100 µM | UACC-257 > 100 µM | MOLT-4 34.9 µM | K562 41 µM | RXF 393 > 100 µM

COC(=O)/C(C#N)=C(\Nc1ccccc1)N1CCCC1
inactive: BT-549 > 100 µM | OVCAR-3 > 100 µM | SF-295 > 100 µM | SW-620 > 100 µM | SK-MEL-28 > 100 µM | SK-MEL-2 > 100 µM | NCI-H460 > 100 µM | SF-539 > 100 µM | NCI-H226 > 100 µM | U-251 > 100 µM | HL-60 > 100 µM | UO-31 > 100 µM | HOP-92 > 100 µM | 786-0 > 100 µM | UACC-257 > 100 µM | MOLT-4 > 100 µM | K562 > 100 µM | RXF 393 > 100 µM

O=C(Nc1c(C(F)(F)F)cc(-c2ccccc2)[nH]c1=O)N1CCOCC1
inactive: BT-549 > 100 µM | OVCAR-3 70.8 µM | SF-295 62.1 µM | SW-620 > 100 µM | CCRF-CEM 46.3 µM | SK-MEL-28 > 100 µM | SK-MEL-2 > 100 µM | NCI-H460 > 100 µM | NCI-H226 > 100 µM | U-251 78.5 µM | HL-60 26.9 µM | UO-31 > 100 µM | HOP-92 58.9 µM | 786-0 > 100 µM | UACC-257 78.3 µM | MOLT-4 > 100 µM | K562 > 100 µM | RXF 393 > 100 µM

[N-]=[N+]=NC1=NNC2(C(=O)N1)c1ccccc1-c1ccccc12
inactive: BT-549 > 100 µM | OVCAR-3 > 100 µM | SF-295 > 100 µM | SW-620 > 100 µM | CCRF-CEM > 100 µM | SK-MEL-28 > 100 µM | SK-MEL-2 > 100 µM | NCI-H460 > 100 µM | SF-539 > 100 µM | NCI-H226 > 100 µM | U-251 > 100 µM | HL-60 > 100 µM | UO-31 > 100 µM | HOP-92 > 100 µM | 786-0 > 100 µM | UACC-257 > 100 µM | K562 > 100 µM | RXF 393 > 100 µM

Cc1nc2ccccc2c(=O)n1NC(=O)c1ccc(CS)cc1
active: CCRF-CEM 0.82 µM | MOLT-4 1.02 µM
inactive: BT-549 13.7 µM | OVCAR-3 11.8 µM | SF-295 25.8 µM | SW-620 6 µM | SK-MEL-28 12.7 µM | NCI-H460 19 µM | SF-539 12.9 µM | NCI-H226 2.84 µM | U-251 3.94 µM | HL-60 2.7 µM | UO-31 12.5 µM | HOP-92 7.85 µM | 786-0 11.5 µM | UACC-257 20.4 µM | K562 6.21 µM | RXF 393 > 10 µM

C=CCN(c1cc(OC)c2[nH]cc(C)c2c1[N+](=O)[O-])S(C)(=O)=O
inactive: BT-549 > 100 µM | OVCAR-3 > 100 µM | SF-295 > 100 µM | SW-620 > 100 µM | CCRF-CEM > 100 µM | SK-MEL-28 > 100 µM | SK-MEL-2 > 100 µM | NCI-H460 > 100 µM | SF-539 > 100 µM | NCI-H226 > 100 µM | U-251 > 100 µM | HL-60 > 100 µM | UO-31 > 100 µM | 786-0 > 100 µM | UACC-257 > 100 µM | MOLT-4 > 100 µM | K562 > 100 µM | RXF 393 > 100 µM

NC(=O)c1nnn(-c2ccccc2)c1O
active: HL-60 0.1 µM
inactive: BT-549 > 100 µM | OVCAR-3 > 100 µM | SF-295 > 100 µM | SW-620 > 100 µM | CCRF-CEM > 100 µM | SK-MEL-28 > 100 µM | SK-MEL-2 > 100 µM | NCI-H460 > 100 µM | SF-539 > 100 µM | NCI-H226 > 100 µM | U-251 > 100 µM | UO-31 > 100 µM | 786-0 > 100 µM | UACC-257 > 100 µM | MOLT-4 > 100 µM | K562 > 100 µM | RXF 393 > 100 µM
